From US11072625B2 (GLYCOMIMETICS, INC., priority 2016, dated 2021)

Target: T1, recombinant human E-selectin/CD63E Fc Chimera (Homo sapiens, UniProt P16581)
T1 construct: purchased R & D systems
Assay: E-selectin activity, analysis by SPR (Biacore X100)
Format: binding
Conditions: Biacore X100, CM5 chip, E-selectin Fc chimera captured on anti-human IgG (Fc) antibody
Method: Surface Plasmon Resonance (SPR) measurements were performed on a Biacore X100 instrument (GE Healthcare). A CM5 sensor chip (GE Healthcare) was used for the interaction between E-selectin and GMI compound. Anti-human IgG (Fc) antibody (GE Healthcare) was immobilized onto the chip by amine coupling according to the manufacturer's instructions. In brief, after a 7-min injection (flow rate of 5 μl/min) of 1:1 mixture of N-ethyl-N′-(3-dimethylaminopropyl) carbodiimide hydrochloride and N-hydroxysuccinimide, anti-human IgG (Fc) antibody (25 μg/ml in 10 mM sodium acetate buffer, pH 5.0) was injected using a 6-min injection at 5 μl min. Remaining activated groups were blocked by injecting 1 M ethanolamine/HCl, pH 8.5. The recombinant human E-selectin/CD63E Fc Chimera (50 μg/ml) (R & D systems) was injected into the experimental cell until 6000-7000 RU was captured onto the antibody surface. No recombinant human E-selectin/CD63E was injected into the control cell. Increasing concentrations of GMI compound samples were injected at 30 μl/min into both flow cells and all sensorgrams were recorded against the control. Regeneration of the anti-human IgG (Fc) surface was achieved by injecting 3M magnesium chloride, followed by 50 mM sodium hydroxide. Data were analyzed using Biacore X100 evaluation/BIA evaluation 4.1.1 software (GE Healthcare) and Graphad prism 6 software.

T1 sequence (P16581 with tags, fused parts or gaps limits assumed): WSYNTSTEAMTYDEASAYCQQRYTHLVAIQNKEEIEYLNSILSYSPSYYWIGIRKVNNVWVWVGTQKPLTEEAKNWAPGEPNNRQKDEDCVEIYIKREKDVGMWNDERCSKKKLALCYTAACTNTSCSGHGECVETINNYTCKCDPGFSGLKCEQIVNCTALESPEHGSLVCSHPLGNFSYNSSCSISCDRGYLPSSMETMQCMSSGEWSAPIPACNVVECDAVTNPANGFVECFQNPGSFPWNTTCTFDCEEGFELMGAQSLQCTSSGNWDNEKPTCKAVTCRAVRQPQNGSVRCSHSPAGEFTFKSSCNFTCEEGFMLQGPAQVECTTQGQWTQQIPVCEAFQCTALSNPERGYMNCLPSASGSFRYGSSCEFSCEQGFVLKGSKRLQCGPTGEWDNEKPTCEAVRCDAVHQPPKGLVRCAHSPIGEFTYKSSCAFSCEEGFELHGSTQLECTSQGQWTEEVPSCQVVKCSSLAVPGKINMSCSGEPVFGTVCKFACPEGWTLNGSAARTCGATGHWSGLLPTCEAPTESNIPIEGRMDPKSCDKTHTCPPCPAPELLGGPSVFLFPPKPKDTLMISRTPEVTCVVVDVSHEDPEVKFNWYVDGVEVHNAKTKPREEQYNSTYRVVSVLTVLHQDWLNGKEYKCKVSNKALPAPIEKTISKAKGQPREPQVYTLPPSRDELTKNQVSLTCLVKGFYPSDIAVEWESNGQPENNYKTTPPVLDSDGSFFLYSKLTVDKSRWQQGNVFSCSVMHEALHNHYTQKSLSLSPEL

SMILES | Kd
CC[C@H]1C[C@@H](C(=O)NCCNC(=O)c2cn(CC(=O)NCCNC(=O)[C@@H]3C[C@H](CC)[C@@H](O[C@@H]4O[C@@H](C)[C@@H](O)[C@@H](O)[C@@H]4O)[C@H](O[C@@H]4O[C@H](CO)[C@H](O)[C@H](O[C@@H](CC5CCCCC5)C(=O)O)[C@H]4NC(C)=O)C3)nn2)C[C@@H](OC2O[C@H](CO)[C@H](O)[C@H](O[C@@H](CC3CCCCC3)C(=O)O)[C@H]2NC(C)=O)[C@@H]1OC1O[C@@H](C)[C@@H](O)[C@@H](O)[C@@H]1O (some centres unmarked) [Compound 31] | 3.3 nM
CC[C@H]1C[C@@H](C(=O)NCCNC(=O)c2cn(CCOCCOCCOCCn3cc(C(=O)NCCNC(=O)[C@@H]4C[C@H](CC)[C@@H](O[C@@H]5O[C@@H](C)[C@@H](O)[C@@H](O)[C@@H]5O)[C@H](O[C@@H]5O[C@H](CO)[C@H](O)[C@H](O[C@@H](CC6CCCCC6)C(=O)O)[C@H]5NC(C)=O)C4)nn3)nn2)C[C@@H](OC2O[C@H](CO)[C@H](O)[C@H](O[C@@H](CC3CCCCC3)C(=O)O)[C@H]2NC(C)=O)[C@@H]1OC1O[C@@H](C)[C@@H](O)[C@@H](O)[C@@H]1O (some centres unmarked) [Compound 27] | 8.6 nM
CCC1CC(C(=O)NCCNC(=O)CCOCCOCCOCCOCCOCCOCCOCCOCCOCCOCCOCCOCCOCCOCCOCCOCCOCCOCCOCCOCCOCCC(=O)NCCNC(=O)C2CC(CC)C(OC3OC(C)C(O)C(O)C3O)C(OC3OC(CO)C(O)C(OC(CC4CCCCC4)C(=O)O)C3NC(C)=O)C2)CC(OC2OC(CO)C(O)C(OC(CC3CCCCC3)C(=O)O)C2NC(C)=O)C1OC1OC(C)C(O)C(O)C1O (centres unmarked) [Compound 13] | 4.7 nM
CC[C@H]1C[C@@H](C(=O)NCCNC(=O)NCCNC(=O)[C@@H]2C[C@H](CC)[C@@H](O[C@@H]3O[C@@H](C)[C@@H](O)[C@@H](O)[C@@H]3O)[C@H](O[C@@H]3O[C@H](CO)[C@H](O)[C@H](O[C@@H](CC4CCCCC4)C(=O)N4CCC4)[C@H]3NC(C)=O)C2)C[C@@H](OC2O[C@H](CO)[C@H](O)[C@H](O[C@@H](CC3CCCCC3)C(=O)N3CCC3)[C@H]2NC(C)=O)[C@@H]1OC1O[C@@H](C)[C@@H](O)[C@@H](O)[C@@H]1O (some centres unmarked) [Compound 45] | 2.1 nM
CC[C@H]1C[C@@H](C(=O)NCCNC(=O)CCC(=O)NCCNC(=O)C2C[C@H](CC)[C@@H](O[C@@H]3O[C@@H](C)[C@@H](O)[C@@H](O)[C@@H]3O)[C@H](O[C@@H]3O[C@H](CO)[C@H](O)[C@H](O[C@@H](CC4CCCCC4)C(=O)O)[C@H]3NC(C)=O)C2)C[C@@H](OC2O[C@H](CO)[C@H](O)[C@H](O[C@@H](CC3CCCCC3)C(=O)O)[C@H]2NC(C)=O)[C@@H]1O[C@@H]1O[C@@H](C)[C@@H](O)[C@@H](O)[C@@H]1O (some centres unmarked) [Compound 19] | 10.2 nM
CC[C@H]1C[C@@H](C(=O)NCCNC(=O)NCCNC(=O)[C@@H]2C[C@H](CC)[C@@H](O[C@@H]3O[C@@H](C)[C@@H](O)[C@@H](O)[C@@H]3O)[C@H](O[C@@H]3O[C@H](CO)[C@H](O)[C@H](O[C@@H](CC4CCCCC4)C(=O)O)[C@H]3NC(C)=O)C2)C[C@@H](OC2O[C@H](CO)[C@H](O)[C@H](O[C@@H](CC3CCCCC3)C(=O)O)[C@H]2NC(C)=O)[C@@H]1OC1O[C@@H](C)[C@@H](O)[C@@H](O)[C@@H]1O (some centres unmarked) [Compound 32] | 8.8 nM
CCC1CC(C(=O)OC)C[C@@H](O[C@@H]2O[C@@H](CO)[C@H](O)C(O[C@@H](CC3CCCCC3)C(=O)N3CCC3)C2NC(C)=O)[C@@H]1O[C@@H]1OC(C)[C@@H](O)[C@H](O)C1O (some centres unmarked) [Compound 4] | 2600 nM
CCC1CC(C(=O)NCCNC(=O)c2cn(CCOCCOCCn3cc(C(=O)NCCNC(=O)C4CC(CC)C(OC5OC(C)C(O)C(O)C5O)C(OC5OC(CO)C(O)C(OC(CC6CCCCC6)C(=O)O)C5NC(C)=O)C4)nn3)nn2)CC(OC2OC(CO)C(O)C(OC(CC3CCCCC3)C(=O)O)C2NC(C)=O)C1OC1OC(C)C(O)C(O)C1O (centres unmarked) [Compound 28] | 3.2 nM
CCC1CC(C(=O)NCCNC(=O)CCOCCOCCOCCOCCC(=O)NCCNC(=O)C2CC(CC)C(OC3OC(C)C(O)C(O)C3O)C(OC3OC(CO)C(O)C(OC(CC4CCCCC4)C(=O)N4CCC4)C3NC(C)=O)C2)CC(OC2OC(CO)C(O)C(OC(CC3CCCCC3)C(=O)N3CCC3)C2NC(C)=O)C1OC1OC(C)C(O)C(O)C1O (centres unmarked) [Compound 23] | 2.8 nM
CCC1CC(C(=O)NCCNC(=O)CCOCCOCCC(=O)NCCNC(=O)C2CC(CC)C(OC3OC(C)C(O)C(O)C3O)C(OC3OC(CO)C(O)C(OC(CC4CCCCC4)C(=O)N4CCC4)C3NC(C)=O)C2)CC(OC2OC(CO)C(O)C(OC(CC3CCCCC3)C(=O)N3CCC3)C2NC(C)=O)C1OC1OC(C)C(O)C(O)C1O (centres unmarked) [Compound 25] | 3 nM
CCC1CC(C(=O)NCCNC(=O)c2cn(CCOCCC(=O)NCCCCC(NC(=O)CCOCCn3cc(C(=O)NCCNC(=O)C4CC(CC)C(OC5OC(C)C(O)C(O)C5O)C(OC5OC(CO)C(O)C(OC(CC6CCCCC6)C(=O)O)C5NC(C)=O)C4)nn3)C(=O)OCc3ccccc3)nn2)CC(OC2OC(CO)C(O)C(OC(CC3CCCCC3)C(=O)O)C2NC(C)=O)C1OC1OC(C)C(O)C(O)C1O (centres unmarked) [Compound 37] | 3.9 nM

Further lines, results first:

Kd | SMILES
6 nM | CCC1CC(C(=O)NCCNC(=O)CCOCCOCCOCCOCCOCCOCCOCCOCCOCCOCCC(=O)NCCNC(=O)C2CC(CC)C(OC3OC(C)C(O)C(O)C3O)C(OC3OC(CO)C(O)C(OC(CC4CCCCC4)C(=O)O)C3NC(C)=O)C2)CC(OC2OC(CO)C(O)C(OC(CC3CCCCC3)C(=O)O)C2NC(C)=O)C1OC1OC(C)C(O)C(O)C1O (centres unmarked) [Compound 15]
3.5 nM | CCC1CC(C(=O)NCCNC(=O)CCOCCOCCC(=O)NCCNC(=O)C2CC(CC)C(OC3OC(C)C(O)C(O)C3O)C(OC3OC(CO)C(O)C(OC(CC4CCCCC4)C(=O)O)C3NC(C)=O)C2)CC(OC2OC(CO)C(O)C(OC(CC3CCCCC3)C(=O)O)C2NC(C)=O)C1OC1OC(C)C(O)C(O)C1O (centres unmarked) [Compound 18]
5.1 nM | CCC1CC(C(=O)NCCNC(=O)CCOCCOCCOCCOCCC(=O)NCCNC(=O)C2CC(CC)C(OC3OC(C)C(O)C(O)C3O)C(OC3OC(CO)C(O)C(OC(CC4CCCCC4)C(=O)O)C3NC(C)=O)C2)CC(OC2OC(CO)C(O)C(OC(CC3CCCCC3)C(=O)O)C2NC(C)=O)C1OC1OC(C)C(O)C(O)C1O (centres unmarked) [Compound 17]
0.8 nM | CCC1CC(C(=O)NCCNC(=O)CCOCCOCCOCCOCCOCCOCCOCCOCCOCCOCCC(=O)NCCNC(=O)C2CC(CC)C(OC3OC(C)C(O)C(O)C3O)C(OC3OC(CO)C(O)C(OC(CC4CCCCC4)C(=O)N4CCC4)C3NC(C)=O)C2)CC(OC2OC(CO)C(O)C(OC(CC3CCCCC3)C(=O)N3CCC3)C2NC(C)=O)C1OC1OC(C)C(O)C(O)C1O (centres unmarked) [Compound 20]
6 nM | CCC1CC(C(=O)NCCNC(=O)CCOCCOCCOCCOCCOCCOCCC(=O)NCCNC(=O)C2CC(CC)C(OC3OC(C)C(O)C(O)C3O)C(OC3OC(CO)C(O)C(OC(CC4CCCCC4)C(=O)O)C3NC(C)=O)C2)CC(OC2OC(CO)C(O)C(OC(CC3CCCCC3)C(=O)O)C2NC(C)=O)C1OC1OC(C)C(O)C(O)C1O (centres unmarked) [Compound 16]
6.6 nM | CCC1CC(C(=O)NCCNC(=O)CCOCCOCCOCCOCCOCCOCCOCCOCCOCCOCCOCCOCCOCCC(=O)NCCNC(=O)C2CC(CC)C(OC3OC(C)C(O)C(O)C3O)C(OC3OC(CO)C(O)C(OC(CC4CCCCC4)C(=O)O)C3NC(C)=O)C2)CC(OC2OC(CO)C(O)C(OC(CC3CCCCC3)C(=O)O)C2NC(C)=O)C1OC1OC(C)C(O)C(O)C1O (centres unmarked) [Compound 14]
